Measured values published in US20080214623A1, “N-(2,2-Dimethylpropyl)-6- -3-Pyridinecarboxamide” (priority 2005, published 2008).

Experiments:
[1] = system: TNFα production in LPS-stimulated leukocytes (human whole blood); assay: TNFα production in human whole blood (LPS-stimulated); type: cell-based; details: Leukocyte, 1 hr preincubation, LPS 50 ng/ml, 20 hours
Description: Assay 2: TNFα Production in Human Whole Blood
p38 Mitogen-activated protein (MAP) kinase (p38) regulates the biosynthesis of pro-inflammatory cytokines such as TNFα. The potency as an inhibitor of cytokine production can thus be assessed by measuring the effects on TNFα production in LPS-stimulated leukocytes. Carrying the assay out on whole blood rather than isolated leukocytes gives a measure of whole cell potency of the compound in the presence of plasma protein and cells, particularly red blood cells that in vivo are likely to lower circulating free drug concentrations. […] The concentrations of TNF in the original whole blood assay supernatants can then be determined from a standard curve generated using authentic human TNFα.
Heparinised blood drawn from normal volunteers was dispensed (100 μl) into microtitre plate wells containing 0.5 or 1.0 μl of an appropriately diluted compound solution. […] Plasma TNFα content was determined by electrochemiluminescence assay using the IGEN technology. […]
TNF assay plates (MSD: cat L41IB-1) were blocked overnight with 20 μl human serum cytokine diluent (MSD). […] 150 μl 2× read buffer T (MSD Cat R92TC-1) was added to the whole blood plates and 90 μl 2.5× read buffer P (MSD Cat R92PC-1) to the PBMC plates and all plates read in the MSD Sector Imager 6000 electrochemiluminescence reader.

Recombinant human p38α = biological target: T1, Recombinant human p38α (Homo sapiens, UniProt Q16539); assay: Fluorescence anisotropy kinase binding assay; details: 12 nM p38α, 5 nM fluorescent ligand
T1 construct: GST; made in house
Method: Assay 1: Fluorescence Anisotropy Kinase Binding Assay
The concentration of kinase enzyme should preferably be 2×Kf. The concentration of fluorescent ligand required will depend on the instrumentation used, and the fluorescent and physicochemical properties. The concentration used must be lower than the concentration of kinase enzyme, and preferably less than half the kinase enzyme concentration.
Recombinant human p38α was expressed as a GST-tagged protein. To activate this protein, 3.5 μM unactivated p38α was incubated in 50 mM Tris-HCl pH 7.5, 0.1 mM EGTA, 0.1% 2-mercaptoethanol, 0.1 mM sodium vanadate, 10 mM MgAc, 0.1 mM ATP with 200 nM MBP-MKK6 DD at 30 degrees for 30 mins. Following activation p38α was re-purified and the activity assessed using a standard filter-binding assay.
All components are dissolved in buffer of composition 62.5 mM HEPES, pH 7.5, 1.25 mM CHAPS, 1 mM DTT, 12.5 mM MgCl2 with final concentrations of 12 nM p38α and 5 nM fluorescent ligand. 30 μl of this reaction mixture is added to wells containing 1 μl of various concentrations of test compound (0.28 nM-16.6 μM final) or DMSO vehicle (3% final) in NUNC 384 well black microtitre plate and equilibrated for 30-60 mins at room temperature. Fluorescence anisotropy is read in Molecular Devices Acquest (excitation 485 nm/emission 535 nm).
Definitions: Ki=dissociation constant for inhibitor binding […]

T1 sequence (Q16539 whole entry): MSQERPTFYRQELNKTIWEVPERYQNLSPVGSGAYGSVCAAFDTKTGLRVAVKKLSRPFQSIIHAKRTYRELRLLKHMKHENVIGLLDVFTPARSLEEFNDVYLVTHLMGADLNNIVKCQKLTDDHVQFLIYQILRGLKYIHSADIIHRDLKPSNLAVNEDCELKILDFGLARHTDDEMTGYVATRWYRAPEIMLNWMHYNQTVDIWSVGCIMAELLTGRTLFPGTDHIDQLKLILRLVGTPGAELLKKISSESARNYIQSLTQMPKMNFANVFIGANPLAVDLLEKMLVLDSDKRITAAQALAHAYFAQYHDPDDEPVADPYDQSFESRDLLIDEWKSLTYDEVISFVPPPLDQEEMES

IC50 [1]: < 50 nM
IC50 (Recombinant human p38α): < 50 nM
Compound: Cc1c(F)cc(C(=O)Nc2ccon2)cc1-c1ccc(C(=O)NCC(C)(C)C)cn1 [Example 1]
